Results as given in PMC5840262, “Design, Synthesis and Evaluation of Branched RRWQWR-Based Peptides as Antibacterial Agents Against Clinically Relevant Gram-Positive and Gram-Negative Pathogens” (Frontiers in Microbiology, 2018).
Ends that are not written are not given here.

Assays:
Format in all cases: cell-based
[1] = system: Enterococcus faecium clinical isolate 1,040; conditions: E. faecium isolate 1,040; for MIC50: broth microdilution, 24 h 37°C, OD620, 50% growth inhibition; for MBC: plated on agar 18 h 37°C, 99.9% reduction
Protocol: (§1) For the clinical isolates, we used 20 different isolates from the Public Health Reference Laboratory collection of the Secretaría de Salud del Distrito (SdSD; Bogotá, Colombia). The samples were collected from June to December 2016. For each isolate, the patient parameters (age, gender and location) and the culture site were recorded for epidemiologic monitoring (Table 1). All isolates had been previously tested for antibiotic sensitivity at the Public Health Microbiology Laboratory using either the Phoenix™ system (Gram-positive) or the VITEK 2 system (Gram-negative).
(§2) We screened all five peptides against the ATCC reference strains and the clinical isolates according to Method M7-A7 of the National Committee for Clinical Laboratory Standards (CLSI, [2007]). The MIC50 and MBC values were determined using a broth microdilution and growth inhibition method previously reported by Leon-Calvijo et al. ([2015]), with some modifications (Wiegand et al., [2008]). Briefly, the MIC50 experiments comprised a liquid-inhibition growth assay in a sterile, untreated, 96-well flat-bottom tissue culture plate. The bacteria were cultured overnight n Mueller Hinton agar; three colonies were transferred to 8 mL of Mueller Hilton broth and incubated at 37°C until the mid-exponential phase of growth. The turbidity of the cultures was measured and adjusted spectrophotometrically to a McFarland standard of 0.5, and then diluted to a final concentration of 5 × 10^7 colony forming units (CFU) per well. Stock solutions (2,000 μM) of each test peptide were serially diluted to final concentrations (per well) of 200, 100, 50, 25, 12.5, and 6.25 μM. Each concentration was evaluated in duplicate and each assay was performed in triplicate.
(§3) Wells containing Mueller Hilton broth with bacterial inoculum only served as bacterial-growth controls. Additional controls included Mueller Hilton broth alone (as blank) and Mueller Hilton broth with ciprofloxacin (2 μg/mL; as positive control). The microplate was incubated for 24 h at 37°C, and growth inhibition was measured by monitoring the optical density at 620 nm (OD620). The MIC50 was defined as the peptide concentration at which bacterial growth was inhibited by 50%.
(§4) To determine the MBC, an aliquot from each well of the MIC50 assay was spread onto Mueller Hilton agar. After 18 h at 37°C, the concentration that inhibited bacterial growth was determined. Each of these tests was performed four times. MBC was defined as the lowest concentration of peptide at which the number of bacteria was reduced by 99.9% in vitro (European Committee for Antimicrobial Susceptibility Testing, [2000]).

[2] = system: Enterococcus faecium clinical isolate 1,225; conditions: E. faecium isolate 1,225; for MIC50: broth microdilution, 24 h 37°C, OD620, 50% growth inhibition; for MBC: plated on agar 18 h 37°C, 99.9% reduction
Protocol: as §1, §2, §3, §4

[3] = system: Enterococcus faecium clinical isolate 1,461; conditions: E. faecium isolate 1,461; for MIC50: broth microdilution, 24 h 37°C, OD620, 50% growth inhibition; for MBC: plated on agar 18 h 37°C, 99.9% reduction
Protocol: as §1, §2, §3, §4

[4] = system: Enterococcus faecium clinical isolate 550; conditions: E. faecium isolate 550; for MIC50: broth microdilution, 24 h 37°C, OD620, 50% growth inhibition; for MBC: plated on agar 18 h 37°C, 99.9% reduction
Protocol: as §1, §2, §3, §4

[5] = system: Klebsiella pneumoniae clinical isolate 50,181; conditions: K. pneumoniae isolate 50,181; for MIC50: broth microdilution, 24 h 37°C, OD620, 50% growth inhibition; for MBC: plated on agar 18 h 37°C, 99.9% reduction
Protocol: as §1, §2, §3, §4

[6] = system: Klebsiella pneumoniae clinical isolate 50,424; conditions: K. pneumoniae isolate 50,424; for MIC50: broth microdilution, 24 h 37°C, OD620, 50% growth inhibition; for MBC: plated on agar 18 h 37°C, 99.9% reduction
Protocol: as §1, §2, §3, §4

[7] = system: Klebsiella pneumoniae clinical isolate 51,009; conditions: K. pneumoniae isolate 51,009; for MIC50: broth microdilution, 24 h 37°C, OD620, 50% growth inhibition; for MBC: plated on agar 18 h 37°C, 99.9% reduction
Protocol: as §1, §2, §3, §4

[8] = system: Klebsiella pneumoniae clinical isolate 51,048; conditions: K. pneumoniae isolate 51,048; for MIC50: broth microdilution, 24 h 37°C, OD620, 50% growth inhibition; for MBC: plated on agar 18 h 37°C, 99.9% reduction
Protocol: as §1, §2, §3, §4

[9] = system: Pseudomonas aeruginosa clinical isolate 47,661; conditions: P. aeruginosa isolate 47,661; for MIC50: broth microdilution, 24 h 37°C, OD620, 50% growth inhibition; for MBC: plated on agar 18 h 37°C, 99.9% reduction
Protocol: as §1, §2, §3, §4

[10] = system: Pseudomonas aeruginosa clinical isolate 48,220; conditions: P. aeruginosa isolate 48,220; for MIC50: broth microdilution, 24 h 37°C, OD620, 50% growth inhibition; for MBC: plated on agar 18 h 37°C, 99.9% reduction
Protocol: as §1, §2, §3, §4

[11] = system: Pseudomonas aeruginosa clinical isolate 48,221; conditions: P. aeruginosa isolate 48,221; for MIC50: broth microdilution, 24 h 37°C, OD620, 50% growth inhibition; for MBC: plated on agar 18 h 37°C, 99.9% reduction
Protocol: as §1, §2, §3, §4

[12] = system: Pseudomonas aeruginosa clinical isolate 48,458; conditions: P. aeruginosa isolate 48,458; for MIC50: broth microdilution, 24 h 37°C, OD620, 50% growth inhibition; for MBC: plated on agar 18 h 37°C, 99.9% reduction
Protocol: as §1, §2, §3, §4

[13] = system: Pseudomonas aeruginosa clinical isolate 48,526; conditions: P. aeruginosa isolate 48,526; for MIC50: broth microdilution, 24 h 37°C, OD620, 50% growth inhibition; for MBC: plated on agar 18 h 37°C, 99.9% reduction
Protocol: as §1, §2, §3, §4

[14] = system: Staphylococcus aureus clinical isolate 43,062; conditions: S. aureus isolate 43,062; for MIC50: broth microdilution, 24 h 37°C, OD620, 50% growth inhibition; for MBC: plated on agar 18 h 37°C, 99.9% reduction
Protocol: as §1, §2, §3, §4

[15] = system: Staphylococcus aureus clinical isolate 43,337; conditions: S. aureus isolate 43,337; for MIC50: broth microdilution, 24 h 37°C, OD620, 50% growth inhibition; for MBC: plated on agar 18 h 37°C, 99.9% reduction
Protocol: as §1, §2, §3, §4

[16] = system: Staphylococcus aureus clinical isolate 52,013; conditions: S. aureus isolate 52,013; for MIC50: broth microdilution, 24 h 37°C, OD620, 50% growth inhibition; for MBC: plated on agar 18 h 37°C, 99.9% reduction
Protocol: as §1, §2, §3, §4

(RRWQWR)4K2Ahx2C2 (disulfide) [LfcinB (20–25)4, branched tetrameric peptide (RRWQWR)4K2Ahx2C2, two dimers linked by a cysteine disulfide bridge]
MIC50 [1]: >100 µM
MBC [1]: >100 µM
MIC50 [2]: >100 µM
MBC [2]: 12.5 µM
MIC50 [3]: >100 µM
MBC [3]: 12.5 µM
MIC50 [4]: >100 µM
MBC [4]: 12.5 µM
MIC50 [5]: 5.5 µM
MBC [5]: 100.0 µM
MIC50 [6]: 7.8 µM
MBC [6]: 100.0 µM
MIC50 [7]: 1.6 µM
MBC [7]: 25.0 µM
MIC50 [8]: 5.2 µM
MBC [8]: 50.0 µM
MIC50 [9]: 7.5 µM
MBC [9]: 25.0 µM
MIC50 [10]: 12.6 µM
MBC [10]: 25.0 µM
MIC50 [11]: 11.9 µM
MBC [11]: 50.0 µM
MIC50 [12]: 72.8 µM
MBC [12]: >100 µM
MIC50 [13]: 24.9 µM
MBC [13]: >100 µM
MIC50 [14]: 6.7 µM
MBC [14]: 12.5 µM
MIC50 [15]: 6.3 µM
MBC [15]: 12.5 µM
MIC50 [16]: 6.7 µM
MBC [16]: 12.5 µM

RRWQWR-NH2 [LfcinB (20–25), reference compound]
MIC50 [1]: >100 µM
MBC [1]: >100 µM
MIC50 [2]: >100 µM
MBC [2]: >100 µM
MIC50 [3]: >100 µM
MBC [3]: >100 µM
MIC50 [4]: >100 µM
MBC [4]: >100 µM
MIC50 [5]: >100 µM
MBC [5]: >100 µM
MIC50 [6]: 11.3 µM
MBC [6]: >100 µM
MIC50 [7]: >100 µM
MBC [7]: >100 µM
MIC50 [8]: >100 µM
MBC [8]: >100 µM
MIC50 [9]: >100 µM
MBC [9]: >100 µM
MIC50 [10]: >100 µM
MBC [10]: >100 µM
MIC50 [11]: >100 µM
MBC [11]: >100 µM
MIC50 [12]: >100 µM
MBC [12]: >100 µM
MIC50 [13]: >100 µM
MBC [13]: >100 µM
MIC50 [14]: 5.1 µM
MBC [14]: >100 µM
MIC50 [15]: 3.7 µM
MBC [15]: >100 µM
MIC50 [16]: 5.1 µM
MBC [16]: >100 µM
